From patent US12692238B2, “Substituted pyridazinone herbicides” (FMC CORPORATION, priority 2020, dated 2026)

Tests used:
Assay type in all cases: in vivo
kochia (Bassia scoparia) [1] = assay: Test A preemergence, kochia; conditions: Bassia scoparia, pre-emergence, 240 h, 0 to 100 scale, 10 days, read-out: Plant response rating, Kochia; for pest or weed control at 31 g/ha: 31 g ai/ha; for pest or weed control at 125 g/ha: 125 g ai/ha
Outline: (§1)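 Both application timings shared one formulation: test chemical in non-phytotoxic solvent with surfactant. Preemergence used a directed soil spray at sowing, postemergence a spray on 2–10 cm seedlings. Untreated plants served as reference for 0–100 visual ratings after 10 days.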

kochia (Bassia scoparia) [2] = assay: Test A postemergence, kochia; conditions: Bassia scoparia, post-emergence, 240 h, 10 days, read-out: Plant response rating, Kochia; for pest or weed control at 31 g/ha: 31 g ai/ha, postemergence, 0 to 100 scale (0 no effect, 100 complete control); for pest or weed control at 125 g/ha: Postemergence, 125 g ai/ha, 0 to 100 scale
Outline: as §1

rice (Oryza sativa) = assay: Test B flooded paddy test, rice; conditions: Oryza sativa; 250 g ai/ha, Flood; visually evaluated after 10 to 14 days; read-out: Plant response rating, Rice (0 to 100 scale where 0 is no effect and 100 is complete control)
Outline: (§2)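 Flooded paddy format: compound delivered into 3 cm of water over the soil at the 2-leaf stage. Greenhouse hold of 10 to 14 days. Scores run from 0 (no effect) to 100 (complete control), judged by eye relative to controls.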

[3] = test system: foxtail, giant (giant foxtail, Setaria faberi); assay: Test A preemergence, foxtail, giant; conditions: Setaria faberi, pre-emergence, 240 h, 0 to 100 scale, 10 days, read-out: Plant response rating, Foxtail, Giant; for pest or weed control at 31 g/ha: 31 g ai/ha; for pest or weed control at 125 g/ha: 125 g ai/ha
Outline: as §1

[4] = test system: ryegrass, Italian (Italian ryegrass, Lolium multiflorum); assay: Test A preemergence, ryegrass, Italian; conditions: Lolium multiflorum, pre-emergence, 240 h, 0 to 100 scale, 10 days, read-out: Plant response rating, Ryegrass, Italian; for pest or weed control at 31 g/ha: 31 g ai/ha; for pest or weed control at 125 g/ha: 125 g ai/ha
Outline: as §1

[5] = test system: ducksalad (Heteranthera limosa); assay: Test B flooded paddy test, ducksalad; conditions: Heteranthera limosa; 250 g ai/ha, Flood; visually evaluated after 10 to 14 days; read-out: Plant response rating, Ducksalad (0 to 100 scale where 0 is no effect and 100 is complete control)
Outline: as §2

[6] = test system: foxtail, giant (giant foxtail, Setaria faberi); assay: Test A postemergence, foxtail, giant; conditions: Setaria faberi, post-emergence, 240 h, 10 days, read-out: Plant response rating, Foxtail, Giant; for pest or weed control at 31 g/ha: 31 g ai/ha; for pest or weed control at 125 g/ha: 125 g ai/ha
Outline: as §1

[7] = test system: galium (catchweed bedstraw, Galium aparine); assay: Test A postemergence, galium; conditions: Galium, post-emergence, 240 h, 10 days, read-out: Plant response rating, Galium; for pest or weed control at 31 g/ha: 31 g ai/ha, postemergence, 0 to 100 scale (0 no effect, 100 complete control); for pest or weed control at 125 g/ha: Postemergence, 125 g ai/ha, 0 to 100 scale
Outline: as §1

[8] = test system: sedge, umbrella (small-flower umbrella sedge, Cyperus difformis); assay: Test B flooded paddy test, sedge, umbrella; conditions: Cyperus difformis; 250 g ai/ha, Flood; visually evaluated after 10 to 14 days; read-out: Plant response rating, Sedge, Umbrella (0 to 100 scale where 0 is no effect and 100 is complete control)
Outline: as §2

[9] = test system: ryegrass, Italian (Italian ryegrass, Lolium multiflorum); assay: Test A postemergence, ryegrass, Italian; conditions: Lolium multiflorum, post-emergence, 240 h, 10 days, read-out: Plant response rating, Ryegrass, Italian; for pest or weed control at 31 g/ha: 31 g ai/ha, postemergence, 0 to 100 scale (0 no effect, 100 complete control); for pest or weed control at 125 g/ha: Postemergence, 125 g ai/ha, 0 to 100 scale
Outline: as §1

[10] = test system: barnyardgrass (Echinochloa crus-galli); assay: Test B flooded paddy test, barnyardgrass; conditions: Echinochloa crus-galli; 250 g ai/ha, Flood; visually evaluated after 10 to 14 days; read-out: Plant response rating, Barnyardgrass (0 to 100 scale where 0 is no effect and 100 is complete control)
Outline: as §2

[11] = test system: ragweed (common ragweed, Ambrosia artemisiifolia); assay: Test A postemergence, ragweed; conditions: Ambrosia artemisiifolia, post-emergence, 240 h, 10 days, read-out: Plant response rating, Ragweed; for pest or weed control at 31 g/ha: 31 g ai/ha, postemergence, 0 to 100 scale (0 no effect, 100 complete control); for pest or weed control at 125 g/ha: Postemergence, 125 g ai/ha, 0 to 100 scale
Outline: as §1

[12] = test system: redroot pigweed (Amaranthus retroflexus); assay: Test A preemergence, redroot pigweed; conditions: 0 to 100 scale, 10 days
Outline: as §1

[13] = test system: barnyardgrass (Echinochloa crus-galli); assay: Test A postemergence, barnyardgrass; conditions: Postemergence, 0 to 100 scale, 10 days
Outline: as §1

[14] = test system: barnyardgrass (Echinochloa crus-galli); assay: Test A preemergence, barnyardgrass; conditions: 10 days
Outline: as §1

[15] = test system: redroot pigweed (Amaranthus retroflexus); assay: Test A postemergence, redroot pigweed; conditions: 10 days
Outline: as §1

[16] = 125 g ai/ha, 0 to 100 scale (0 no effect, 100 complete control)
[17] = 31 g ai/ha, postemergence, 0 to 100 scale (0 no effect, 100 complete control)
[18] = Postemergence, 125 g ai/ha, 0 to 100 scale

| SMILES | pest or weed control at 31 g/ha (kochia (Bassia scoparia) [1]) | pest or weed control at 125 g/ha (kochia (Bassia scoparia) [1]) | pest or weed control at 31 g/ha (kochia (Bassia scoparia) [2]) | pest or weed control at 125 g/ha (kochia (Bassia scoparia) [2]) | plant injury at 250 g/ha (rice (Oryza sativa)) | pest or weed control at 31 g/ha [3] | pest or weed control at 125 g/ha [3] | pest or weed control at 31 g/ha [4] | pest or weed control at 125 g/ha [4] | pest or weed control at 250 g/ha [5] | pest or weed control at 31 g/ha ([6]; Postemergence, 0 to 100 scale) | pest or weed control at 125 g/ha ([6]; Postemergence, 0 to 100 scale) | pest or weed control at 31 g/ha [7] | pest or weed control at 125 g/ha [7] | pest or weed control at 250 g/ha [8] | pest or weed control at 31 g/ha [9] | pest or weed control at 125 g/ha [9] | pest or weed control at 250 g/ha [10] | pest or weed control at 31 g/ha [11] | pest or weed control at 125 g/ha [11] | further results |
| --- | --- | --- | --- | --- | --- | --- | --- | --- | --- | --- | --- | --- | --- | --- | --- | --- | --- | --- | --- | --- | --- |
| COC(=O)OCOc1c(Cl)nn(C)c(=O)c1-c1c2cc(C)ccc2cc2ccc(C)cc12 [Compound 8, [[3-chloro-5-(2,7-dimethyl-9-anthracenyl)-1,6-dihydro-1-methyl-6-oxo-4-pyridazinyl]oxy]methyl methyl carbonate] | 60% | 100% | 90% | 100% | 0% | 30% | 70% | 0% | 10% | 95% | 10% | 70% | 100% | 100% | 95% | 10% | 10% | 90% | 100% | 100% | – |
| COC(=O)OCOc1c(C)nn(C)c(=O)c1-c1c2cc(C)ccc2cc2ccc(F)cc12 [Compound 15, [[5-(2-fluoro-7-methyl-9-anthracenyl)-1,6-dihydro-1,3-dimethyl-6-oxo-4-pyridazinyl]oxy]methyl methyl carbonate] | 90% | 100% | 100% | 100% | 65% | 100% | 100% | 50% | 100% | 95% | – | 100% | 100% | 100% | 90% | 100% | 100% | 50% | 100% | 100% | pest or weed control at 31 g/ha ([6]; postemergence, 0 to 100 scale (0 no effect, 100 complete control)): 100% |
| Cc1ccc2cc3ccc(C)cc3c(-c3c(OCOC(=O)C(C)(C)C)c(Cl)nn(C)c3=O)c2c1 [Compound 9, [[3-chloro-5-(2,7-dimethyl-9-anthracenyl)-1,6-dihydro-1-methyl-6-oxo-4-pyridazinyl]oxy]methyl 2,2-dimethylpropanoate] | 50% | 100% | 70% | 90% | 0% | 0% | 50% | 0% | 0% | 100% | 20% | 40% | 70% | 100% | 100% | 0% | 10% | 98% | 80% | 100% | – |
| CC(=O)OCOc1c(Cl)nn(C)c(=O)c1-c1c(C)sc2cccc(Cl)c12 [Compound 1, 5-[(acetyloxy)methoxy]-6-chloro-4-(4-chloro-2-methylbenzo[b]thien-3-yl)-2-methyl-3(2H)-pyridazinone] | 0% | 10% | 10% | 50% | 10% | – | – | 0% | 10% | 0% | – | – | 70% | 90% | 0% | 10% | 30% | 0% | 70% | 90% | Plant response rating, Pigweed, Redroot ([12]; 31 g ai/ha): 80; Plant response rating, Pigweed, Redroot ([12]; 125 g ai/ha): 90; Plant response rating, Barnyardgrass ([13]; 31 g ai/ha): 0; Plant response rating, Barnyardgrass ([13]; 125 g ai/ha): 40; Plant response rating, Barnyardgrass ([14]; 31 g ai/ha, 0 to 100 scale): 0; Plant response rating, Barnyardgrass [14, 16]: 0; Plant response rating, Pigweed, Redroot [15, 17]: 80; Plant response rating, Pigweed, Redroot [15, 18]: 90 |
| CC(=O)OCOc1c(Cl)nn(C)c(=O)c1-c1c(C)ccc2ccccc12 [Compound 5, 5-[(acetyloxy)methoxy]-6-chloro-2-methyl-4-(2-methyl-1-naphthalenyl)-3(2H)-pyridazinone] | 40% | 70% | 30% | 60% | 35% | – | – | 70% | 100% | 80% | – | – | 100% | 100% | 85% | 30% | 80% | 40% | 80% | 90% | Plant response rating, Pigweed, Redroot ([12]; 31 g ai/ha): 100; Plant response rating, Pigweed, Redroot ([12]; 125 g ai/ha): 100; Plant response rating, Barnyardgrass ([13]; 31 g ai/ha): 40; Plant response rating, Barnyardgrass ([13]; 125 g ai/ha): 80; Plant response rating, Barnyardgrass ([14]; 31 g ai/ha, 0 to 100 scale): 80; Plant response rating, Barnyardgrass [14, 16]: 100; Plant response rating, Pigweed, Redroot [15, 17]: 90; Plant response rating, Pigweed, Redroot [15, 18]: 100 |
